Laboratory results: patent US20080045514A1 (Cytovia, Inc., priority 2006, published 2008)
Like-named read-outs stand apart in the source and are kept apart here.

Assays:
Format in all cases: cell-based
[1] = test system: human colon carcinoma cell line HCT116; assay: Inhibition of cell proliferation (GI50), HCT116; settings: HCT 116 cells, 48 h, CellTiter-Glo
Procedure: (§1) Human breast cancer cell lines T-47D, human hepatocellular carcinoma cell line SNU398, human colon carcinoma cell line HCT116, human lung cancer cell line H1299, human leukemia cell line K562, human lymphoma cell line Raji, human B cell lymphoblastoid cell line Ramos, and human Burkitt's lymphoma cell line Namalwa were grown and harvested as in Example 100. An aliquot of […] of cells (4.4×10^4 cells/mL) was added to a well of a 96-well microtiter plate containing 5 μL of a 10% DMSO in RPMI-1640 media solution containing 10 nM to 100 μM of 3-(2-chlorophenyl)-6-(3,4-methylenedioxyphenyl)-7H-[1,2,4]triazolo[3,4-b][1,3,4]thiadiazine (1 nM to 10 μM final). An aliquot of 45 μL of cells was added to a well of a 96-well microtiter plate containing 5 μL of a 10% DMSO in RPMI-1640 media solution without compound as the control sample for maximal cell proliferation (LMax). The samples were mixed by agitation and then incubated at 37° C. for 48 h in a 5% CO2-95% humidity incubator. After incubation, the samples were removed from the incubator and 25 μL of CellTiter-Glo™ reagent (Promega) was added. The samples were mixed by agitation and incubated at room temperature for 10-15 min. Plates were then read using a luminescent plate reader (Model SPECTRAfluor Plus, Tecan) to give Ltest values.
(§2) The samples were mixed by agitation and then incubated at 37° C. for 0.5 h in a 5% CO2-95% humidity incubator. After incubation, the samples were removed from the incubator and 25 μL of CellTiter-Glo™ reagent (Promega) was added. The samples were mixed by agitation and incubated at […] 10-15 min at room temperature in a 5% CO2-95% humidity incubator. Fluorescence was read as above, (LStart) defining luminescence for initial cell number used as baseline in GI50 determinations.
(§3) Calculation: GI50 (dose for 50% inhibition of cell proliferation) is the concentration where [(Ltest−LStart)/(LMax−LStart)]=0.5.

[2] = test system: human breast cancer cell line T-47D; assay: Caspase cascade activation (EC50), T-47D; settings: T47D cells, caspase cascade activation, read-out: caspase potency (EC50) T47D
Summary of the method: (§4)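 Cells were resuspended at 0.65×10^6 cells/mL in medium + 10% FCS and exposed to test compound at 0.016 to 10 μM final for 48 h at 37 °C. Caspase activity was then read as fluorescence (ex 485/em 530 nm) from DEVD-R110 substrate with lysolecithin in PIPES pH 7.2, 3 h at room temperature.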

[3] = test system: human hepatocellular carcinoma cell line SNU398; assay: Inhibition of cell proliferation (GI50), SNU398; settings: SNU 398 cells, 48 h, CellTiter-Glo
Procedure: as §1, §2, §3

[4] = test system: human breast cancer cell line T-47D; assay: Inhibition of cell proliferation (GI50), T47D; settings: T47D cells, 48 h, CellTiter-Glo
Procedure: as §1, §2, §3

[5] = test system: human lymphoma cell line Raji; assay: Inhibition of cell proliferation (GI50), Raji; settings: Homo sapiens; Raji cells, 48 h, CellTiter-Glo
Procedure: as §1, §2, §3

[6] = test system: human B cell lymphoblastoid cell line Ramos; assay: Caspase cascade activation (EC50), Ramos; settings: Homo sapiens, RAMOS cells, read-out: caspase potency (EC50) RAMOS
Summary of the method: as §4

[7] = test system: human hepatocellular carcinoma cell line SNU398; assay: Caspase cascade activation (EC50), SNU398; settings: Homo sapiens, SNU-398; SNU398 cells; caspase cascade activation; read-out: caspase potency (EC50) SNU398
Summary of the method: as §4

[8] = test system: human cancer cell line H1299; assay: Caspase cascade activation (EC50), H1299; settings: NCI-H1299, H1299 cells, read-out: caspase potency (EC50) H1299
Summary of the method: as §4

[9] = test system: human Burkitt's lymphoma cell line Namalwa; assay: Inhibition of cell proliferation (GI50), Namalwa; settings: Homo sapiens, Burkitts lymphoma cell; Namalwa cells, 48 h, CellTiter-Glo
Procedure: as §1, §2, §3

[10] = test system: human leukemia cell line K562; assay: Inhibition of cell proliferation (GI50), K562; settings: Homo sapiens; K562 cells, 48 h, CellTiter-Glo
Procedure: as §1, §2, §3

[11] = test system: human Burkitt's lymphoma cell line Namalwa; assay: Caspase cascade activation (EC50), Namalwa; settings: Homo sapiens, Burkitts lymphoma cell; Namalwa cells; caspase cascade activation; read-out: caspase potency (EC50) Namalwa
Summary of the method: as §4

[12] = test system: human B cell lymphoblastoid cell line Ramos; assay: Inhibition of cell proliferation (GI50), Ramos; settings: Homo sapiens; Ramos cells, 48 h, CellTiter-Glo
Procedure: as §1, §2, §3

[13] = test system: human lymphoma cell line Raji; assay: Caspase cascade activation (EC50), Raji; settings: Homo sapiens, RAJI cells, read-out: caspase potency (EC50) RAJI
Summary of the method: as §4

[14] = test system: human colon carcinoma cell line HCT116; assay: Caspase cascade activation (EC50), HCT116; settings: Homo sapiens, HCT-116; HCT116 cells; caspase cascade activation; read-out: caspase potency (EC50) HCT116
Summary of the method: as §4

| GI50 [1] [nM] | EC50 [2] [nM] | GI50 [3] [nM] | GI50 [4] [nM] | GI50 ([1]; Homo sapiens) [nM] | GI50 [5] [nM] | EC50 ([2]; Homo sapiens) [nM] | EC50 [6] [nM] | EC50 [7] [nM] | EC50 [8] [nM] | GI50 [9] [nM] | GI50 [10] [nM] | EC50 [11] [nM] | GI50 [12] [nM] | EC50 [13] [nM] | EC50 [14] [nM] | GI50 ([3]; Homo sapiens) [nM] | GI50 ([4]; Homo sapiens) [nM] | Compound |
| --- | --- | --- | --- | --- | --- | --- | --- | --- | --- | --- | --- | --- | --- | --- | --- | --- | --- | --- |
|  |  |  |  | 5000 |  | 2120 | 2590 | > 10000 |  |  |  | > 10000 |  | 5400 | > 10000 | 4600 | 5000 | CCOc1cccc(-c2nnc3n2N=C(c2ccc4c(c2)OCO4)CS3)c1 [Example E1, 3-(3-Ethoxyphenyl)-6-(3,4-methylenedioxyphenyl)-7H-[1,2,4]triazolo[3,4-b][1,3,4]thiadiazine] |
|  |  |  |  | 359 | 587 | 503 | 65 | 61 |  | 112 | 37 | 80 | 33 | 121 | 100 |  |  | COc1ccc(C2=Nn3c(nnc3-c3cccc(C)c3)SC2)cc1 [Example Q2] |
|  |  |  |  | 1100 | 730 | 537 | 127 | 86 |  | 256 | 72 | 129 | 100 | 190 | 168 |  |  | COc1ccc(C2=Nn3c(nnc3-c3ccc(C)cc3)SC2)cc1 [Example U2] |
|  |  |  |  | 1130 | 1260 | 312 | 256 | 195 |  | 975 | 400 | 250 | 346 | 444 | 268 |  |  | COc1ccc(C2=Nn3c(nnc3-c3n[nH]c4c3CCC4)SC2)cc1 [Example V2] |

The next lines start with the compound.

| Compound | GI50 [1] [nM] | EC50 [2] [nM] | GI50 [3] [nM] | GI50 [4] [nM] | GI50 ([1]; Homo sapiens) [nM] | GI50 [5] [nM] | EC50 ([2]; Homo sapiens) [nM] | EC50 [6] [nM] | EC50 [7] [nM] | EC50 [8] [nM] | GI50 [9] [nM] | GI50 [10] [nM] | EC50 [11] [nM] | GI50 [12] [nM] | EC50 [13] [nM] | EC50 [14] [nM] | GI50 ([3]; Homo sapiens) [nM] | GI50 ([4]; Homo sapiens) [nM] |
| --- | --- | --- | --- | --- | --- | --- | --- | --- | --- | --- | --- | --- | --- | --- | --- | --- | --- | --- |
| 3-(3,5-Dimethoxyphenyl-4-(2-dimethylaminoethoxy)phenyl)-6-(4-methylphenyl)-7H-[1,2,4]triazolo[3,4-b][1,3,4]thiadiazine [Example 16] | 1150 | 609 | 2000 | 936 |  |  |  |  |  |  |  |  |  |  |  |  |  |  |
| CCOc1ccc(C2=Nn3c(nnc3-c3ccc(C)cc3)SC2)cc1 [B, 3-(4-Methylphenyl)-6-(4-ethoxyphenyl)-7H-[1,2,4]triazolo[3,4-b][1,3,4]thiadiazine] |  |  |  |  | 396 | 133 | 2710 | 331 | 266 | 1250 | 254 | 267 | 270 | 108 | 455 | 431 |  |  |
| COc1cc(-c2nnc3n2N=C(c2ccc(C)cc2)CS3)cc(OC)c1OC [Example 17, 3-(3,4,5-Trimethoxyphenyl)-6-(4-methylphenyl)-7H-[1,2,4]triazolo[3,4-b][1,3,4]thiadiazine] |  |  |  |  | 21 |  | 118 | 31 | 24 |  |  |  | 29 |  | 50 | 46 | 25 | 15 |
| COc1ccccc1-c1nnc2n1N=C(c1ccc(C)c(C)c1)CS2 [Example 40, 3-(2-Methoxyphenyl)-6-(3,4-dimethylphenyl)-7H-[1,2,4]triazolo[3,4-b][1,3,4]thiadiazine] |  |  |  |  | 129 |  | 163 |  | 41 |  | 29 |  | 49 |  |  | 65 | 50 | 137 |
| COc1cc(C)ccc1C1=Nn2c(nnc2-c2ccccc2OC)SC1 [Example 41, 6-(2-Methoxy-4-methylphenyl)-3-(2-methoxyphenyl)-7H-[1,2,4]triazolo[3,4-b][1,3,4]thiadiazine] |  |  |  |  | 1270 |  | 422 |  | 180 |  | 208 |  | 182 |  |  | 289 | 117 | 261 |
| COc1ccccc1-c1nnc2n1N=C(c1ccc(OC)c(OC)c1OC)CS2 [Example 42, 6-(2,3,4-Trimethoxyphenyl)-3-(2-methoxyphenyl)-7H-[1,2,4]triazolo[3,4-b][1,3,4]thiadiazine] |  |  |  |  | 482 |  | 335 |  | 488 |  | 433 |  | 316 |  |  | 753 | 121 | 288 |
| COc1ccccc1-c1nnc2n1N=C(c1ccc3c(c1)OCCO3)CS2 [Example 43, 6-(2,3-Dihydrobenzo[b][1,4]dioxin-6-yl)-3-(2-methoxyphenyl)-7H-[1,2,4]triazolo[3,4-b][1,3,4]thiadiazine] |  |  |  |  | 40 |  | 35 |  | 17 |  | 64 |  | 15 |  |  | 25 | 13 | 34 |
| COc1ccc(C2=Nn3c(nnc3-c3ccccc3OC)SC2)cc1 [Example 46, 3-(2-Methoxyphenyl)-6-(4-methoxyphenyl)-7H-[1,2,4]triazolo[3,4-b][1,3,4]thiadiazine] |  |  |  |  | 8 |  | 43 |  | 17 |  | 13 |  | 11 |  |  | 19 | 10 | 12 |
| COc1ccccc1-c1nnc2n1N=C(c1ccc3[nH]c(=O)oc3c1)CS2 [Example 47, 6-(2,3-Dihydro-2-oxobenzo[d]oxazol-6-yl)-3-(2-methoxyphenyl)-7H-[1,2,4]triazolo[3,4-b][1,3,4]thiadiazine] |  |  |  |  | 3000 |  | 2330 |  | 2740 |  | 1480 |  | 4790 |  |  | 5540 | 1220 | 3020 |
| COc1ccccc1-c1nnc2n1N=C(c1ccc(C(F)(F)F)cc1)CS2 [Example 48, 6-(4-(Trifluoromethyl)phenyl)-3-(2-methoxyphenyl)-7H-[1,2,4]triazolo[3,4-b][1,3,4]thiadiazine] |  |  |  |  | 324 |  | 545 |  | 511 |  | 452 |  | 480 |  |  | 569 | 120 | 690 |
| CCOc1ccc(C2=Nn3c(nnc3-c3ccccc3C)SC2)cc1 [L, 3-(2-Methylphenyl)-6-(4-ethoxyphenyl)-7H-[1,2,4]triazolo[3,4-b][1,3,4]thiadiazine] |  |  |  |  | 141 | 62 | 1340 | 93 | 92 | 339 | 24 | 27 | 62 | 17 | 141 | 126 |  |  |
| COc1ccc(C2=Nn3c(nnc3-c3cccc(Cl)c3)SC2)cc1 [R, 3-(3-Chlorophenyl)-6-(4-methoxyphenyl)-7H-[1,2,4]triazolo[3,4-b][1,3,4]thiadiazine] |  |  |  |  | 121 | 89 | 557 | 77 | 115 | 553 | 117 | 42 | 122 | 17 | 109 | 242 |  |  |
